Target: T1, MIF (Homo sapiens, UniProt P14174)
T1 sequence (P14174 2-115 limits assumed): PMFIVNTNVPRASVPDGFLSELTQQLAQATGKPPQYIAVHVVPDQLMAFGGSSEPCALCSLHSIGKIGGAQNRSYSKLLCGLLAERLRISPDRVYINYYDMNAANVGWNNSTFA
Assay: Competitive fluorescence polarization (FP) assay with tracer ligand B
Format: binding
Conditions: MIF Inhibition by Compounds of formula (Ia); Kd calculated from the IC50 of the competitive FP assay, fluorescent ligand B as tracer
Method: Determination of the affinities for A and B by FP assay. Determination of Kd values for the tracers followed previously reported protocols for other proteins. Experiments are carried out by quadruplicates in three independent experiments. In a flat black bottom 96 well plate (Corning), add to the third column 300 μL of 1.8 μM MIF in FP buffer (20 mM HEPES, 150 mM NaCl, 0.01% Tween-20, pH 7.4). From this column, using a multichannel pipette make serial dilutions (1:2) into the following wells to a total volume of 150 μL. First column contains 200 μL buffer and is used as a blank, while second column contains 150 μL buffer. 2 μL of DMSO are added to each well to keep 1% of DMSO, followed by the addition of 16.7 nM ligand A or B (48 μL) except first column (blank). Fluorescence polarization is measured at λexc=485±20 nm, λem=535±25 nm using an Infinite F500 plate reader until no FP variation was observed (typically 1 h). From the lowest and highest FP values (tracer free and tracer fully bound to MIF) we calculated the fraction of ligand bound to the protein to ligand total (Lb/Lt) for each concentration of MIF.
Competitive FP assay. In order to calculate the Kd values of the unlabeled compounds, competitive assays were carried out in quadruplicates in three independent experiments. In a flatblack bottom 96 well plate (Corning) 140 μL of FP buffer are added to columns 3-12. First column contains 200 μL buffer (blank), while second column contains 150 μL FP buffer. 10 μL of 1.1 μM MIF are added to columns 3-12 followed by the addition of 2 μL of inhibitor in DMSO at 9 different concentrations. 2 μL of DMSO are added to columns 1-3. After 20 min of incubation at rt 48 μL of 16.7 nM ligand B are added to columns 2-12 and fluorescencepolarization was measured at λexc=485±20 nm, λem=535±25 nm for 1 h. Data are analyzed by a least-squares non-linear fit, generated using Prism 6 in order to determine the compound's IC50. Kd values for each inhibitor are calculated using the following equation based on the IC50, Kd of the tracer (K^t), total (Lt) and bound (Lb) tracer, as well as total MIF concentration (Pt). Samples of 4-IPP and Pontamine Sky Blue were purchased both from Tocris and Santa Cruz Biotechnology.

Kd [nM] | Structure (SMILES)
12 ± 1 | O=C1Oc2cc(O)ccc2CN1c1ccc(OCCN2CCOCC2)cc1 [Compound C8, 7-Hydroxy-3-(4-(2-morpholinoethoxy)phenyl)-3,4-dihydro-2H-benzo[e][1,3]oxazin-2-one]
16 ± 1 | O=C1Oc2cc(O)ccc2CN1c1ccc(OCCOCCN2CCOc3ccccc32)cc1 [Compound C10, 3-(4-(2-(2-(2,3-Dihydro-4H-benzo[b][1,4]oxazin-4-yl)ethoxy)ethoxy)phenyl)-7-hydroxy-3,4-dihydro-2H-benzo[e][1,3]oxazin-2-one]
16 ± 5 | COCCOCCOc1ccc(N2Cc3ccc(O)cc3OC2=O)cc1 [Compound C2]
828 ± 44 | O=C1Oc2cc(O)ccc2CN1c1ccc(C23CC4CC(CC(C4)C2)C3)cc1 [Compound C6]
23 ± 6 | O=C1Oc2cc(O)ccc2CN1c1ccc(OCCOCCOCCN2CCOCC2)cc1 [Compound C7]
22 ± 8 | O=C(O)CCCOc1ccc(N2Cc3ccc(O)cc3OC2=O)cc1 [Compound C4]
53 ± 7 | O=C1Oc2cc(O)ccc2CN1c1ccc(OCCOCCOc2cccc(N3CCOCC3)c2)cc1 [Compound C9]
23 ± 13 | O=C1Oc2cc(O)ccc2CN1c1ccc(OCCOCCN2CCOCC2)cc1 [Compound C3, 7-Hydroxy-3-(4-(2-(2-morpholinoethoxy)ethoxy)phenyl)-3,4-dihydro-2H-benzo[e][1,3]oxazin-2-one]
6 ± 1 | COCCOc1ccc(N2Cc3ccc(O)cc3OC2=O)cc1 [Compound C1]

Reference: US20230399303A1, “Macrophage Migration Inhibitory Factor Inhibitors, and Methods of Making and Using Same” (YALE UNIVERSITY, priority 2020, published 2023)
